{
  "source": "patent US20230404081A1",
  "about": "“A FORMULATION AND A METHOD FOR INDUCING DEFENSE RESPONSE IN PLANTS” (NATIONAL INSTITUTE OF PLANT GENOME RESEARCH, priority 2020, published 2023)",
  "key": {"salicylic acid (SA)": {"tested_on": "salicylic acid (SA)", "assay": "Salicylic acid (SA) estimation in distal leaves", "conditions": "distal leaf samples, 6h post-sodium dithionite treatment, vs control plants", "protocol": "Since salicylic acid (SA) is important in the induction of systemic acquired resistance in plants, the distal leaf samples were collected for SA estimation at 6h post-sodium dithionite treatment."}, "nitric oxide (NO)": {"tested_on": "nitric oxide (NO)", "type": "in vivo, tomato"}, "tomato leaves": {"tested_on": "tomato leaves", "assay": "Hypersensitive response like symptoms on tomato leaves under sodium dithionite coated Whatman filter paper stickers", "type": "in vivo", "conditions": "tomato leaves (Pusa Rubi), stickers on adaxial surface for 3 hours, followed till 24 h", "experimental": "To check whether sodium dithionite is able to induce plants innate immune response, square stickers from Whatman filter papers were coated with sodium dithionite under anoxic conditions (FIG. 4). These stickers were stacked on the adaxial surface of tomato leaves for 3 hours (FIG. 5). The variety of the tomato plant used for the purposes of present disclosure is Pusa Rubi accessed from Indian Agricultural Research Institute, New Delhi, India."}},
  "data": [
    {"smiles": "O=S([O-])S(=O)[O-].[Na+].[Na+]", "note": "[sodium dithionite]", "values": [
      {"measurement": "SA accumulation in distal leaves", "setting": "salicylic acid (SA)", "value": "significant accumulation of SA"},
      {"measurement": "NO levels (DAF-FM DA) after further treatment with avirulent Pseudomonas syringae", "setting": "nitric oxide (NO); in vivo", "value": "Larger spots representing bursts of NO were observed"},
      {"measurement": "NO production (DAF-FM DA)", "setting": "nitric oxide (NO); tomato leaves treated with sodium dithionite strips alone", "value": "Increased microbursts of NO"},
      {"measurement": "hypersensitive response like symptoms", "setting": "tomato leaves", "value": "Hypersensitive response like symptoms started developing just after the treatment and was increased till 24 h"}
    ]}
  ]
}
